Laboratory results from patent publication US20220281876A1, “DEGRADATION OF BRUTON'S TYROSINE KINASE (BTK) BY CONJUGATION OF BTK INHIBITORS WITH E3 LIGASE LIGAND AND METHODS OF USE” (BEIGENE, LTD., priority 2019, published 2022).

What follows are compounds tested against T1, BTK (Homo sapiens, UniProt Q06187) (assay: BTK cell degradation in Ramos cells (total BTK ELISA)). Conditions: 16 h incubation, FastScan total BTK ELISA.
T1 construct: endogenous in cells; host or cells: Ramos cells
Format: cell-based
In short: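 Ramos cells were treated for 16 h with compounds (7 doses, 5-fold dilution series, 0.1% DMSO). Total BTK in cell lysates was quantified by sandwich ELISA with TMB read-out at 450 nm.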

T1 sequence (Q06187 whole entry): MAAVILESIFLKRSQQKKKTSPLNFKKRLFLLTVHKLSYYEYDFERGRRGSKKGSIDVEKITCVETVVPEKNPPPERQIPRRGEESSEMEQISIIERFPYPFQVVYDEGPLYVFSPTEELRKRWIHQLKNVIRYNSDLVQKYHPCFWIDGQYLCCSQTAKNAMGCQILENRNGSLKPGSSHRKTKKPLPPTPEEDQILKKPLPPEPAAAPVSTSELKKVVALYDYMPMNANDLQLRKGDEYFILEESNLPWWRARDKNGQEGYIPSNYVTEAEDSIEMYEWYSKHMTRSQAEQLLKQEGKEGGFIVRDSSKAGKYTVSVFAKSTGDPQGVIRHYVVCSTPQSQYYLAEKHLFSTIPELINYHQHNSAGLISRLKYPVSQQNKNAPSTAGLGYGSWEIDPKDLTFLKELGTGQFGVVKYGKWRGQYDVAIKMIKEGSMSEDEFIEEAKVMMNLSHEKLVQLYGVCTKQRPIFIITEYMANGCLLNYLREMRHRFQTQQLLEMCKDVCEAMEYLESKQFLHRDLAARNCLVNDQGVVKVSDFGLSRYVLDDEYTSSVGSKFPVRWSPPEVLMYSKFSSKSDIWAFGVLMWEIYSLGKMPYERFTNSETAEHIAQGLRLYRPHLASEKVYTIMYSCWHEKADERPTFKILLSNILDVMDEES

SMILES	DC50 [nM]
NC(=O)c1c(-c2ccc(Oc3ccccc3)cc2)nn2c1NCC[C@H]2C1CCN(C(=O)CCN2CCC(CN3CCN(c4ccc5c(c4)C(=O)N(C4CCC(=O)NC4=O)C5=O)CC3)CC2)CC1 (stereo partly drawn) [Example 95, (7S)-7-(1-(3-(4-((4-(2-(2,6-dioxopiperidin-3-yl)-1,3-dioxoisoindolin-5-yl)piperazin-1-yl)methyl)piperidin-1-yl)propanoyl)piperidin-4-yl)-2-(4-phenoxyphenyl)-4,5,6,7-tetrahydropyrazolo[1,5-a]pyrimidine-3-carboxamide]	1680
NC(=O)c1c(-c2ccc(Oc3ccccc3)cc2)nn2c1NCC[C@H]2C1CCN(C(=O)CCCC2CCC(N3CCN(c4ccc5c(c4)C(=O)N(C4CCC(=O)NC4=O)C5=O)CC3)CC2)CC1 (stereo partly drawn) [Example 148, (7S)-7-(1-(4-(4-(4-(2-(2,6-dioxopiperidin-3-yl)-1,3-dioxoisoindolin-5-yl)piperazin-1-yl)cyclohexyl)butanoyl)piperidin-4-yl)-2-(4-phenoxyphenyl)-4,5,6,7-tetrahydropyrazolo[1,5-a]pyrimidine-3-carboxamide]	205
NC(=O)c1c(-c2ccc(Oc3ccccc3)cc2)nn2c1NCC[C@H]2C1CCN(C(=O)CCCN2CCN(C(=O)CNc3ccc4c(c3)C(=O)N(C3CCC(=O)NC3=O)C4=O)CC2)CC1 (stereo partly drawn) [Example 152, (7S)-7-(1-(4-(4-((2-(2,6-dioxopiperidin-3-yl)-1,3-dioxoisoindolin-5-yl)glycyl)piperazin-1-yl)butanoyl)piperidin-4-yl)-2-(4-phenoxyphenyl)-4,5,6,7-tetrahydropyrazolo[1,5-a]pyrimidine-3-carboxamide]	35
NC(=O)c1c(-c2ccc(Oc3ccccc3)cc2)nn2c1NCC[C@H]2C1CCN(C(=O)CCNc2cccc3c2C(=O)N(C2CCC(=O)NC2=O)C3=O)CC1 (stereo partly drawn) [Example 154, (7S)-7-(1-(3-((2-(2,6-dioxopiperidin-3-yl)-1,3-dioxoisoindolin-4-yl)amino)propanoyl)piperidin-4-yl)-2-(4-phenoxyphenyl)-4,5,6,7-tetrahydropyrazolo[1,5-a]pyrimidine-3-carboxamide]	637
NC(=O)c1c(-c2ccc(Oc3ccccc3)cc2)nn2c1NCC[C@H]2C1CCN(C(=O)CCN2CCC(N3CCN(c4ccc5c(c4)C(=O)N(C4CCC(=O)NC4=O)C5=O)CC3)CC2)CC1 (stereo partly drawn) [Example 156, (7S)-7-(1-(3-(4-(4-(2-(2,6-dioxopiperidin-3-yl)-1,3-dioxoisoindolin-5-yl)piperazin-1-yl)piperidin-1-yl)propanoyl)piperidin-4-yl)-2-(4-phenoxyphenyl)-4,5,6,7-tetrahydropyrazolo[1,5-a]pyrimidine-3-carboxamide]	1680

Further compounds by falling DC50, results first:

DC50 [nM]	SMILES
35	CN(CCC(=O)N1CCC([C@@H]2CCNc3c(C(N)=O)c(-c4ccc(Oc5ccccc5)cc4)nn32)CC1)CC1CCN(c2ccc3c(c2)C(=O)N(C2CCC(=O)NC2=O)C3=O)CC1 (stereo partly drawn) [Example 64, (7S)-7-(1-(3-(((1-(2-(2,6-dioxopiperidin-3-yl)-1,3-dioxoisoindolin-5-yl)piperidin-4-yl)methyl)(methyl)amino)propanoyl)piperidin-4-yl)-2-(4-phenoxyphenyl)-4,5,6,7-tetrahydropyrazolo[1,5-a]pyrimidine-3-carboxamide]
17	NC(=O)c1c(-c2ccc(Oc3ccccc3)cc2)nn2c1NCC[C@H]2C1CCN(C(=O)CCC2CCC(N3CCN(c4ccc5c(c4)C(=O)N(C4CCC(=O)NC4=O)C5=O)CC3)CC2)CC1 (stereo partly drawn) [Example 151, (7S)-7-(1-(3-(4-(4-(2-(2,6-dioxopiperidin-3-yl)-1,3-dioxoisoindolin-5-yl)piperazin-1-yl)cyclohexyl)propanoyl)piperidin-4-yl)-2-(4-phenoxyphenyl)-4,5,6,7-tetrahydropyrazolo[1,5-a] pyrimidine-3-carboxamide]
7.2	CN(CC1CCN(C(=O)c2ccc(N3CCC(=O)NC3=O)cc2)CC1)C1CC(C(=O)N2CCC([C@@H]3CCNc4c(C(N)=O)c(-c5ccc(Oc6ccccc6)cc5)nn43)CC2)C1 (stereo partly drawn) [Example 155, (S)-7-(1-(3-(((1-(4-(2,4-dioxotetrahydropyrimidin-1(2H)-yl)benzoyl)piperidin-4-yl)methyl)(methyl)amino)cyclobutane-1-carbonyl)piperidin-4-yl)-2-(4-phenoxyphenyl)-4,5,6,7-tetrahydropyrazolo[1,5-a]pyrimidine-3-carboxamide]
